Molecules are shown by their SMILES. Converted amounts (≈) assume the structure as drawn. Where only a bound is given, the exact number is not on record here.

Some test systems named below: Klebsiella pneumoniae; Bacillus subtilis; Staphylococcus aureus; Escherichia coli.
Holding throughout (test): ≥ marks a high value that may be exact or a test limit, other limits are often not marked, values filed in µg/mL are converted to µM
Assay [1] concerns Pseudomonas aeruginosa ATCC 9027.
The test system of assay [2] is Staphylococcus aureus ATCC 6538.
The subject of assay [3] is Escherichia coli ATCC 25922.
The subject of assay [4] is Pseudomonas aeruginosa ATCC 27853.
In assay [5] the test system is Salmonella enterica subsp. enterica serovar Typhimurium ATCC 14028.
Assay [6] concerns Staphylococcus aureus ATCC 25923.
Assay [7] relates to Staphylococcus aureus ATCC 29213.
Assay [8] concerns Candida albicans ATCC 90028.
Assay [9] relates to Candida albicans ATCC 2002.
Assay [10] has as its system Enterococcus faecalis ATCC 29212.

Usually MIC stands for the smallest concentration in the dilution series that meets the test's criterion for growth inhibition. Read a low MIC as a more susceptible organism. Turning to `CC(C)C[C@H](NC(=O)[C@H](CCCCN)NC(=O)[C@H](CCCCN)NC(=O)[C@H](CC(C)C)NC(=O)[C@H](C)NC(=O)[C@H](CCCCN)NC(=O)[C@H](CC(C)C)NC(=O)[C@H](C)NC(=O)[C@H](CCCCN)NC(=O)[C@H](CCCCN)NC(=O)[C@H](C)NC(=O)[C@@H](N)Cc1ccccc1)C(N)=O` [FAKKALKALKKL], the minimal inhibitory concentration (MIC) in assay [1] stood at 73.6 µM (≈ 99.9 µg/mL); in assay [2], 147 µM (≈ 200 µg/mL).

On to `CC(C)C[C@H](NC(=O)[C@H](CC(C)C)NC(=O)[C@H](C)NC(=O)[C@H](CCCCN)NC(=O)[C@H](C)NC(=O)[C@H](CC(C)C)NC(=O)[C@H](CCCCN)NC(=O)[C@H](CCCCN)NC(=O)[C@H](C)NC(=O)[C@@H](N)Cc1ccccc1)C(N)=O` [FAKKLAKALL], for which the MIC in assay [1] and in assay [2] was 90.7 µM (≈ 99.9 µg/mL) in each case.

As for `CC(C)C[C@H](NC(=O)[C@H](CCCCN)NC(=O)[C@H](C)NC(=O)[C@H](CC(C)C)NC(=O)[C@H](CCCCN)NC(=O)[C@H](CC(C)C)NC(=O)[C@H](C)NC(=O)[C@H](CC(C)C)NC(=O)[C@H](CCCCN)NC(=O)[C@H](C)NC(=O)[C@H](CC(C)C)NC(=O)[C@H](CCCCN)NC(=O)[C@H](CCCCN)NC(=O)[C@H](C)NC(=O)[C@@H](N)Cc1ccccc1)C(N)=O` [FAKKLAKLALKLAKL], the MIC in assay [1] and in assay [2] was 3.02 µM (≈ 5 µg/mL) each time.

Regarding `CC(C)C[C@H](NC(=O)[C@H](C)NC(=O)[C@H](CCCCN)NC(=O)[C@H](CCCCN)NC(=O)[C@H](C)NC(=O)[C@H](CC(C)C)NC(=O)[C@H](CCCCN)NC(=O)[C@H](C)NC(=O)[C@H](CC(C)C)NC(=O)[C@H](CC(C)C)NC(=O)[C@H](CCCCN)NC(=O)[C@H](C)NC(=O)[C@@H](N)Cc1ccccc1)C(N)=O` [FAKLLAKLAKKAL], the figures for the MIC in assay [1] and in assay [2] were 35.3 µM (≈ 50 µg/mL) and 3.53 µM (≈ 5 µg/mL), respectively.

Turning to `CC(C)C[C@H](NC(=O)[C@H](CCCCN)NC(=O)[C@H](CC(C)C)NC(=O)[C@H](CCCCN)NC(=O)[C@H](CC(C)C)NC(=O)[C@H](C)NC(=O)[C@H](CC(C)C)NC(=O)[C@H](C)NC(=O)[C@H](CC(C)C)NC(=O)[C@H](CC(C)C)NC(=O)[C@H](CCCCN)NC(=O)[C@H](C)NC(=O)[C@@H](N)Cc1ccccc1)C(N)=O` [FAKLLALALKLKL], the MIC in assay [1] is above 139 µM; in [2] it was 6.94 µM (≈ 9.99 µg/mL).

As to `CC(C)C[C@H](NC(=O)[C@H](C)NC(=O)[C@H](CCCCN)NC(=O)[C@H](CCCCN)NC(=O)[C@H](CC(C)C)NC(=O)[C@H](C)NC(=O)[C@H](CCCCN)NC(=O)[C@H](CCCCN)NC(=O)[C@H](CC(C)C)NC(=O)[C@H](CCCCN)NC(=O)[C@H](CCCCN)NC(=O)[C@H](CC(C)C)NC(=O)[C@H](C)NC(=O)[C@H](CCCCN)NC(=O)[C@H](CCCCN)NC(=O)[C@H](CC(C)C)NC(=O)[C@H](C)NC(=O)[C@H](CCCCN)NC(=O)[C@H](CC(C)C)NC(=O)[C@H](C)NC(=O)[C@H](CC(C)C)NC(=O)[C@H](C)NC(=O)[C@@H](N)Cc1ccccc1)C(N)=O` [FALALKALKKALKKLKKALKKAL], the MIC worked out at 39.4 µM (≈ 100 µg/mL) in [1] and 9.85 µM (≈ 25 µg/mL) in assay [2].

Consider `CC[C@H](C)[C@H](NC(=O)CN)C(=O)NCC(=O)N[C@@H](CCCCN)C(=O)N[C@@H](Cc1cnc[nH]1)C(=O)N[C@H](C(=O)NCC(=O)N[C@@H](CCCCN)C(=O)N[C@@H](C)C(=O)N[C@@H](CC(C)C)C(=O)N[C@@H](CCCCN)C(=O)NCC(=O)N[C@@H](CC(C)C)C(=O)N[C@@H](CCCCN)C(=O)NCC(=O)N[C@@H](CC(C)C)C(=O)N[C@@H](CC(C)C)C(=O)N[C@@H](CCCCN)C(=O)NCC(=O)N[C@@H](CC(C)C)C(=O)NCC(=O)N[C@@H](CCC(=O)O)C(=O)N[C@@H](CS)C(=O)O)C(C)C` [GIGKHVGKALKGLKGLLKGLGEC], for which the MIC was 0.707 µM (≈ 1.61 µg/mL) in assay [3]; 2 µM (≈ 4.55 µg/mL) in assay [4]; 1 µM (≈ 2.28 µg/mL) with Klebsiella pneumoniae; 1 µM (≈ 2.28 µg/mL) in assay [5]; at least 128 µM in assay [6].

For the molecule `CC[C@H](C)[C@H](NC(=O)[C@H](CC(C)C)NC(=O)[C@H](C)NC(=O)[C@H](CC(C)C)NC(=O)[C@H](CC(C)C)NC(=O)CN)C(=O)N[C@@H](CO)C(=O)N[C@@H](Cc1c[nH]c2ccccc12)C(=O)N[C@H](C(=O)N[C@@H](CCCCN)C(=O)N[C@@H](CCCN=C(N)N)C(=O)N[C@@H](CCCCN)C(=O)N[C@@H](CCCN=C(N)N)C(=O)N[C@@H](CCC(N)=O)C(=O)N[C@@H](CCC(N)=O)C(N)=O)[C@@H](C)CC` [GLLALISWIKRKRQQ], the MIC in the assay with Bacillus subtilis is 1.22 µM (≈ 2.2 µg/mL); with Staphylococcus aureus it was 0.663 µM (≈ 1.2 µg/mL); with Escherichia coli, 39.1 µM (≈ 70.8 µg/mL).

Take `CC[C@H](C)[C@H](NC(=O)[C@H](CC(C)C)NC(=O)[C@H](C)NC(=O)[C@@H]1CCCN1C(=O)[C@H](CC(C)C)NC(=O)CN)C(=O)N[C@@H](CC(C)C)C(=O)N[C@@H](Cc1c[nH]c2ccccc12)C(=O)N[C@H](C(=O)N[C@@H](CCCCN)C(=O)N[C@@H](CCCN=C(N)N)C(=O)N[C@@H](CCCCN)C(=O)N[C@@H](CCCN=C(N)N)C(=O)N[C@@H](CCC(N)=O)C(=O)N[C@@H](CCC(N)=O)C(N)=O)[C@@H](C)CC` [GLPALILWIKRKRQQ]: the MIC against Bacillus subtilis was 0.352 µM (≈ 0.64 µg/mL); against Staphylococcus aureus it was 0.769 µM (≈ 1.4 µg/mL); in the assay with Escherichia coli it was 44.9 µM (≈ 81.7 µg/mL).

For the molecule `CC[C@H](C)[C@H](N)C(=O)N[C@@H](CC(N)=O)C(=O)N[C@@H](CO)C(=O)N[C@@H](CC(C)C)C(=O)N[C@@H](CCCCN)C(=O)N[C@@H](CC(C)C)C(=O)NCC(=O)N[C@@H](CCCCN)C(=O)N[C@@H](CCCCN)C(=O)N[C@H](C(=O)N[C@@H](CC(C)C)C(=O)NCC(=O)N[C@@H](C)C(=O)N[C@@H](CC(C)C)C(N)=O)[C@@H](C)CC` [INSLKLGKKILGAL], the MIC with Bacillus subtilis was at least 100 µM; against Escherichia coli, above 100 µM.

Turning to `CC[C@H](C)[C@H](NC(=O)[C@H](C)NC(=O)[C@@H](N)CCCCN)C(=O)N[C@H](C(=O)N[C@@H](CCC(N)=O)C(=O)N[C@@H](CCCN=C(N)N)C(=O)N[C@H](C(=O)N[C@@H](CCCCN)C(=O)N[C@@H](CC(=O)O)C(=O)N[C@@H](Cc1ccccc1)C(=O)N[C@@H](CC(C)C)C(=O)N[C@@H](CCCN=C(N)N)C(=O)O)[C@@H](C)CC)C(C)C` [KAIVQRIKDFLR], the MIC in assay [3] was 40 µM (≈ 59.5 µg/mL); in [7] it was 40 µM (≈ 59.5 µg/mL); in assay [4], 40 µM (≈ 59.5 µg/mL); in [8], at least 40 µM.

Turning to `CC[C@H](C)[C@H](NC(=O)[C@H](CCCN=C(N)N)NC(=O)[C@@H](N)CCCCN)C(=O)N[C@H](C(=O)N[C@@H](CCC(N)=O)C(=O)N[C@@H](CCCN=C(N)N)C(=O)N[C@@H](C)C(=O)N[C@@H](CCCCN)C(=O)N[C@@H](CC(=O)O)C(=O)N[C@@H](Cc1ccccc1)C(=O)N[C@@H](CC(C)C)C(=O)N[C@@H](CCCN=C(N)N)C(=O)O)C(C)C` [KRIVQRAKDFLR], the minimum inhibitory concentration (MIC) is 40 µM (≈ 61.2 µg/mL) in assay [3], 40 µM (≈ 61.2 µg/mL) in assay [7], 40 µM (≈ 61.2 µg/mL) in [4] and at least 40 µM in assay [8].

Take `CC[C@H](C)[C@H](NC(=O)[C@H](C)NC(=O)[C@H](CCCN=C(N)N)NC(=O)[C@H](Cc1ccc(O)cc1)NC(=O)[C@H](CC(C)C)NC(=O)[C@H](CC(N)=O)NC(=O)[C@H](Cc1ccc(O)cc1)NC(=O)CNC(=O)[C@H](C)NC(=O)[C@@H](NC(=O)[C@@H](NC(=O)[C@@H](NC(=O)[C@H](CCCN=C(N)N)NC(=O)[C@@H](NC(=O)[C@@H](NC(=O)[C@@H](NC(=O)[C@@H]1CCCN1C(=O)[C@H](Cc1c[nH]c2ccccc12)NC(=O)[C@H](Cc1ccccc1)NC(=O)[C@H](CCCN=C(N)N)NC(=O)[C@H](CCCCN)NC(=O)[C@@H](NC(=O)[C@@H](N)CCCN=C(N)N)[C@@H](C)CC)C(C)C)C(C)C)[C@@H](C)CC)[C@@H](C)O)C(C)C)C(C)C)C(=O)N[C@@H](CCCCN)C(=O)O` [RIKRFWPVVIRTVVAGYNLYRAIK]: the MIC with Bacillus subtilis was found to be 1.61 µM (≈ 4.69 µg/mL); in [3], 0.803 µM (≈ 2.34 µg/mL); in assay [6] it was 2.41 µM (≈ 7.03 µg/mL); in assay [9], 0.201 µM (≈ 0.586 µg/mL).

With `CC(C)C[C@H](NC(=O)[C@H](C)NC(=O)[C@H](CC(C)C)NC(=O)[C@H](CCCCN)NC(=O)[C@H](C)NC(=O)[C@H](CC(C)C)NC(=O)[C@H](CCCCN)NC(=O)[C@H](CCCCN)NC(=O)[C@H](C)NC(=O)[C@H](CC(C)C)NC(=O)[C@H](CCCCN)NC(=O)[C@H](C)NC(=O)[C@H](CC(C)C)NC(=O)[C@H](CCCCN)NC(=O)[C@H](CCCCN)NC(=O)[C@H](C)NC(=O)[C@@H](N)C(C)C)C(N)=O` [VAKKLAKLAKKLAKLAL], the figures for the MIC in assay [1] and in assay [2] were 8.3 µM (≈ 15 µg/mL) and 2.77 µM (≈ 5 µg/mL), respectively.

In the case of `CC[C@H](C)[C@H](NC(=O)[C@H](CCCCN)NC(=O)[C@H](CCCCN)NC(=O)[C@H](Cc1ccccc1)NC(=O)[C@H](CC(C)C)NC(=O)[C@H](CCCCN)NC(=O)[C@H](CCCCN)NC(=O)[C@@H](N)Cc1c[nH]c2ccccc12)C(=O)N[C@@H](CC(C)C)C(=O)N[C@@H](CCCCN)C(=O)N[C@@H](Cc1ccc(O)cc1)C(=O)N[C@@H](CC(C)C)C(N)=O` [WKKLFKKILKYL], the MIC in assay [3] came out at 0.746 µM (≈ 1.2 µg/mL); in assay [7] it was 1.49 µM (≈ 2.4 µg/mL); in assay [4], 2.11 µM (≈ 3.39 µg/mL); in assay [10], 2.98 µM (≈ 4.8 µg/mL).
